Assay results published in PMC7757078, “Comparative in vitro analysis of inhibition of rhinovirus and influenza virus replication by mucoactive secretolytic agents and plant extracts” (BMC Complementary Medicine and Therapies, 2020).
Where a name gives a salt, the structure may show the parent alone. Read-outs that look alike come from different tables or passages of the source. Marks after values point to notes of the source that are not given here.

Columns and labels:
[1] = test system: influenza virus A/Jena/8178/09; details: for CPE inhibition at non-cytotoxic concentrations: 0.0316–100 μM; for CPE inhibition at non-cytotoxic concentrations / Effect on influenza virus A/Jena/8178/09-induced CPE (in words): MDCK cells; for Effect on influenza virus A/Jena/8178/09-induced CPE (in words): non-cytotoxic concentrations
[2] = test system: influenza virus A/Hong Kong/68; details: for CPE inhibition at non-cytotoxic concentrations: 0.0316–100 μM; for Effect on influenza virus A/Hong Kong/68-induced CPE (in words): non-cytotoxic concentrations
rhinovirus B14 [3] = details: 3-day pretreatment of primary human tracheal epithelial cells; cited from earlier work
rhinovirus A2 = assay: CPE inhibitory assay with rhinovirus A2 in HeLa Ohio cells; details: for CPE inhibition at non-cytotoxic concentrations: 0.0316–100 μM, HeLa Ohio cells
HeLa Ohio cells = assay: Cytotoxicity determination in HeLa Ohio cells (crystal violet, 72 h); assay type: cell-based, human; details: for 50% Cytotoxic concentration in HeLa cells, Mean: 72 h
Method: HeLa Ohio and MDCK cells were seeded at 1.6 × 10^4 and 2.3 × 10^4 cells/well in 100 μL growth medium in 96 well flat-bottomed microtiter plates, respectively. The cytotoxicity of the test compounds and extracts was determined on two-day-old confluent cell monolayers grown in the internal 60 wells of a microtiter plate (5% carbon dioxide, 37 °C). After removal of the growth medium, 50 μL of test medium and eight half-log dilutions of the reference compounds pleconaril or zanamivir, or eight half-log dilutions of test items in test medium (each concentration in duplicates) were added. The concentration range of reference compounds applied to cytotoxicity assays was 0.0316–100 μM. […] Six cell control wells were incubated with 100 μL test medium. After 72 h of incubation at 37 °C in 5% carbon dioxide atmosphere, the Dynex Immuno Assay System (Guernsey, UK), developed for automated ELISA techniques, was applied to gently wash, stain, measure, and analyze the viability of the cell monolayers based on optical density determination. After aspiration of supernatant, cell monolayers were washed three times with 300 μL physiological phosphate-buffered saline to remove death cells. The remaining cells were fixed and stained with 50 μL of 0.07% crystal violet (w/v), 20% ethanol, 3% formalin solution in water for 10 min. Six washings with 300 μL of water followed to remove excess stain. Before measuring the optical density, we solubilized the crystal violet by adding 100 μL lysis buffer (0.898 g of sodium citrate and 1.25 mL of 1 N HCl in 98.05 mL 47.5% ethanol) for 20 min. The absorbances were red at two wavelengths (550 and 690 nm). Cell viability in a well was defined as the percentage of the mean value of optical density resulting from the six cell controls, which was set 100% cell viability. The inhibitor concentration that reduces the mean value of optical density determined for cell controls by half is called 50% cytotoxic concentration (CC50). A minimum of three independent experiments were performed.

rhinovirus B14 [4] = assay: CPE inhibitory assay with rhinovirus B14 in HeLa Ohio cells; assay type: cell-based; details: for CPE inhibition at non-cytotoxic concentrations: 0.0316–100 μM
[5] = test system: rhinovirus (stored under rhinovirus A2; the sentence does not specify which rhinovirus); assay: in vitro; details: human
[6] = following the application of 600 mg; cited from earlier work
viral neuraminidase = details: 37 °C for 24 h
Method: Thereafter, we incubated the assays at 37 °C for further 24 h allowing viral neuraminidase activation [43]. The activated viral neuraminidase abrogates the virus-mediated hemagglutination in absence of inhibitors (hemagglutination control) or in the presence of ineffective inhibitor concentrations. Neuraminidase inhibitors prevent this abrogation of virus-mediated hemagglutination.

[7] = test system: influenza virus A/Jena/8178/09; assay: organism not typed; details: MDCK, read-out: 50% Inhibitory concentration against Influenza A viruses Jena/8178, Mean
[8] = test system: influenza virus A/Jena/8178/09; assay: Hemagglutination inhibition assay with human erythrocytes; parameters: species or system influenza A virus (H1N1pdm09); details: 4 hemagglutination units, maximum test concentration 1 μM
Method: (§1) The negative control (no hemagglutination) consists only 50 μL phosphate-buffered saline (n = 8). […] We added 50 μL of a 1% human erythrocytes solution to each well of the microplate. After a two-hour incubation at 4 °C, we recorded the lowest compound concentration that induces hemagglutination or inhibits virus-mediated hemagglutination (minimum hemagglutination or hemagglutination inhibitory concentration, respectively).

[9] = test system: influenza virus A/Hong Kong/68; assay: Time-of-addition plaque-reduction assay in MDCK cells; details: pelargonium extract 50 μg/mL, zanamivir 1 μM
[10] = test system: influenza virus A/Hong Kong/68; assay: organism not typed; details: MDCK, read-out: 50% Inhibitory concentration against Influenza A viruses HK/68, Mean
human erythrocytes = assay: Hemagglutination by test item in the absence of virus; details: maximum test concentration 1 μM
Method: as §1

SMILES: Nc1c(Br)cc(Br)cc1CN[C@H]1CC[C@H](O)CC1 [Ambroxol, ambroxol]
- CPE inhibition at non-cytotoxic concentrations [1]: less than 50%
- Effect on influenza virus A/Jena/8178/09-induced CPE (in words) [1]: did not show any effect
- CPE inhibition at non-cytotoxic concentrations ([2]; MDCK cells): less than 50%
- Effect on influenza virus A/Hong Kong/68-induced CPE (in words) ([2]; MDCK cells): did not show any effect
- Concentration reducing the titer of rhinovirus B14 in the supernatant (rhinovirus B14 [3]): at least 0.1 μM
- 50% Cytotoxic concentration in MDCK cells, Mean (MDCK cells; MDCK cells, 72 h): > 100^a μM
- CPE inhibition at non-cytotoxic concentrations (rhinovirus A2): < 50%
- 50% Cytotoxic concentration in HeLa cells, Mean (HeLa Ohio cells; HeLa Ohio cells): 61.24 µM
- 50% Cytotoxic concentration in HeLa cells, Mean (HeLa Ohio cells; HeLa Ohio cells, listed as ambroxol): 51.85 µM
- CPE inhibition at non-cytotoxic concentrations (rhinovirus B14 [4]): < 50%

SMILES: Cc1cc(CCCOc2c(C)cc(-c3noc(C(F)(F)F)n3)cc2C)on1 [Pleconaril, pleconaril]
- selectivity ratio [5]: > 3500
- IC50 (rhinovirus A2; HeLa, read-out: 50% Inhibitory concentration against Rhinoviruses A2, Mean): 8 nM
- Concentration above which a marked dose-dependent cytotoxic effect was seen (HeLa Ohio cells; HeLa Ohio cells): higher than 10 μM
- 50% Cytotoxic concentration in HeLa cells, Mean (HeLa Ohio cells; HeLa Ohio cells): 28.75 µM
- IC50 (rhinovirus B14 [4]; n.a. = not active up to the maximum non-cytotoxic concentration, read-out: 50% Inhibitory concentration against Rhinoviruses B14, Mean): 25 nM

SMILES: CC(=O)N[C@@H](CS)C(=O)O [N-acetylcysteine]
- CPE inhibition at non-cytotoxic concentrations [1]: less than 50%
- Effect on influenza virus A/Jena/8178/09-induced CPE (in words) [1]: did not show any effect
- CPE inhibition at non-cytotoxic concentrations ([2]; MDCK cells): less than 50%
- Effect on influenza virus A/Hong Kong/68-induced CPE (in words) ([2]; MDCK cells): did not show any effect
- Maximal plasma concentration [6]: about 16 μM
- 50% Cytotoxic concentration in MDCK cells, Mean (MDCK cells): > 100^a μM
- 50% Cytotoxic concentration in HeLa cells, Mean (HeLa Ohio cells; HeLa Ohio cells): > 100^a μM
- Cytotoxicity in HeLa Ohio cells (in words) (HeLa Ohio cells; tested concentration range): non-cytotoxic

SMILES: CN(Cc1cc(Br)cc(Br)c1N)C1CCCCC1 [Bromhexine, bromhexine hydrochloride]
- CPE inhibition at non-cytotoxic concentrations [1]: less than 50%
- CPE inhibition at non-cytotoxic concentrations ([2]; MDCK cells): less than 50%
- Reduction of influenza virus A/Hong Kong/68-induced CPE ([2]; at 31.6 μM, MDCK cells): 30%
- Cytotoxic concentration in MDCK cells (MDCK cells; MDCK cells): 100 µM
- 50% Cytotoxic concentration in MDCK cells, Mean (MDCK cells; MDCK cells, 72 h): 51.29 µM
- CPE inhibition at non-cytotoxic concentrations (rhinovirus A2): < 50%
- 50% Cytotoxic concentration in HeLa cells, Mean (HeLa Ohio cells; HeLa Ohio cells): 51.85 µM
- 50% Cytotoxic concentration in HeLa cells, Mean (HeLa Ohio cells; HeLa Ohio cells, listed as bromhexine): 61.24 µM
- CPE inhibition at non-cytotoxic concentrations (rhinovirus B14 [4]): < 50%

SMILES: CC(=O)N[C@H]1[C@H]([C@H](O)[C@H](O)CO)OC(C(=O)O)=C[C@@H]1N=C(N)N [Zanamivir, zanamivir]
- Minimal neuraminidase inhibitory concentration (viral neuraminidase): 0.03 µM
- Selectivity index against Influenza A viruses Jena/8178 [1]: > 14,285
- IC50 [7]: 7 nM
- Selectivity index against Influenza A viruses HK/68 [2]: > 12,500
- Inhibition of virus-mediated hemagglutination (in words) [8]: neither mediated nor inhibited
- 50% Cytotoxic concentration in MDCK cells, Mean (MDCK cells; MDCK cells, 72 h): > 100^a μM
- Cytotoxicity in MDCK cells (in words) (MDCK cells; tested concentrations): well tolerated
- Plaque production, treatment during adsorption ([9]; 4 °C for 2 h): did not prevent
- Plaque production, pre-treatment of cells ([9]; 1 h at 37 °C before infection): did not prevent
- Plaque production, pre-treatment of virus ([9]; 1 h at 37 °C before infection): did not prevent
- Plaque production, treatment after adsorption ([9]; in agar overlay for 72 h): completely blocked
- Plaque production, treatment during and after adsorption [9]: completely blocked
- IC50 [10]: 8 nM
- Induction of hemagglutination (in words) (human erythrocytes): neither mediated nor inhibited
